Key:
human Treg cells = assay: In vitro pharmacodynamic experiment on human Treg cells (flow cytometry CD4, CD25, Foxp3); format: cell-based; conditions: for IC50: Homo sapiens, 120 h, five days of compound incubation, CD4, CD25, Foxp3 positive counts vs DMSO control, read-out: IC50, inhibitory activity on human Treg cells
Procedure: • 1. Research purpose: The in vitro pharmacodynamic experiment of compound I on human Treg cells. • 2. […] Experimental methods: • 1) A 96-well cell culture plate was coated with 10 μg/mL anti-human CD3, 50 μL per well, incubated at 37° C. for three hours, and then rinsed with X-VIVO medium. • 2) Human peripheral blood mononuclear cells (purchased from Hemacare) were resuscitated and stained with CellTrace Violet (CTV). • 3) After staining, Human Naive CD4+ T cells were isolated using the Human naïve CD4 isolation kit. • 4) IL-2 (10 ng/ml), CD28 (2 μg/mL), and TGF-b (1 ng/mL) were added to the cell culture medium, and different concentrations of the test compounds were added at the same time. • 5) After five days of compound incubation, CD4, CD25, and Foxp3 were detected by flow cytometry. The positive counts of CD4, CD25, and Foxp3 were calculated, and the relative survival rate and IC50 were calculated compared with the DMSO control group. • 4. Experimental results: • The experiment used the flow cytometry method to determine the in vitro pharmacodynamic experiment of the test compound I on human Treg cells. The detection results are shown in A and B of FIG. 5 and Table 3.

PI3Kδ = PI3Kδ (Homo sapiens (Human), UniProt O00329); assay: ADP-Glo chemiluminescence enzymatic activity assay, PI3Kδ; format: biochemical; conditions: mean ± SD, N = 3, ATP 40 μM
Procedure: (§1) • 1. Research purpose: The inhibitory effect of compound I on the enzymatic activity of PI3Kδ and PI3Kγ in vitro. • 2. Experimental materials: • (1) Main instrument: Envision (PerkinElmer-2104) • (2) Main reagents: ADP-Glo kinase kit (purchased from Promega), PI3Kδ (P1108/P85a) (purchased from Millipore), and PI3Kγ (P120γ) (purchased from Millipore). • 3. Experimental methods: • 1) Preparation of buffer salt solution: A 10× buffer salt solution with a pH of 7.5 containing 500 mM HEPES, 500 mM NaCl, and 30 mM MgCl2 was prepared with ultrapure water and stored at 4° C. for later use. Before use, the above buffer salt solution was diluted to a 3.33× buffer salt solution and BSA was added to a final concentration of 0.333 mg/mL. • 2) A 100× reference compound (compound I) was prepared with a starting concentration of 100 nM, diluted in a 3-fold serial dilution to 10 concentrations and transferred to the corresponding 384 microwell plate at 50 nL/well. In the control group, 50 nL/well of DMSO was added. • 3) 3.33×PI3K solutions were prepared with the 3.33× buffer salt solution, PI3Kδ at a final concentration of 0.25 nM, PI3Kγ at a final concentration of 0.4 nM. A 3.33×PIP2:3PS solution was prepared, mixed with the enzyme solutions at a volume ratio of 1:1, and added to the 384 microwell plate in 3 μL/well. […] The luminescence value was read using Envision. • 4. […]

PI3Kγ = PI3Kγ (Homo sapiens (Human), UniProt P48736); assay: ADP-Glo chemiluminescence enzymatic activity assay, PI3Kγ; format: biochemical; conditions: mean ± SD, N = 3, ATP 25 μM
Procedure: as §1

Sequence of PI3Kδ (O00329 whole entry, looked up): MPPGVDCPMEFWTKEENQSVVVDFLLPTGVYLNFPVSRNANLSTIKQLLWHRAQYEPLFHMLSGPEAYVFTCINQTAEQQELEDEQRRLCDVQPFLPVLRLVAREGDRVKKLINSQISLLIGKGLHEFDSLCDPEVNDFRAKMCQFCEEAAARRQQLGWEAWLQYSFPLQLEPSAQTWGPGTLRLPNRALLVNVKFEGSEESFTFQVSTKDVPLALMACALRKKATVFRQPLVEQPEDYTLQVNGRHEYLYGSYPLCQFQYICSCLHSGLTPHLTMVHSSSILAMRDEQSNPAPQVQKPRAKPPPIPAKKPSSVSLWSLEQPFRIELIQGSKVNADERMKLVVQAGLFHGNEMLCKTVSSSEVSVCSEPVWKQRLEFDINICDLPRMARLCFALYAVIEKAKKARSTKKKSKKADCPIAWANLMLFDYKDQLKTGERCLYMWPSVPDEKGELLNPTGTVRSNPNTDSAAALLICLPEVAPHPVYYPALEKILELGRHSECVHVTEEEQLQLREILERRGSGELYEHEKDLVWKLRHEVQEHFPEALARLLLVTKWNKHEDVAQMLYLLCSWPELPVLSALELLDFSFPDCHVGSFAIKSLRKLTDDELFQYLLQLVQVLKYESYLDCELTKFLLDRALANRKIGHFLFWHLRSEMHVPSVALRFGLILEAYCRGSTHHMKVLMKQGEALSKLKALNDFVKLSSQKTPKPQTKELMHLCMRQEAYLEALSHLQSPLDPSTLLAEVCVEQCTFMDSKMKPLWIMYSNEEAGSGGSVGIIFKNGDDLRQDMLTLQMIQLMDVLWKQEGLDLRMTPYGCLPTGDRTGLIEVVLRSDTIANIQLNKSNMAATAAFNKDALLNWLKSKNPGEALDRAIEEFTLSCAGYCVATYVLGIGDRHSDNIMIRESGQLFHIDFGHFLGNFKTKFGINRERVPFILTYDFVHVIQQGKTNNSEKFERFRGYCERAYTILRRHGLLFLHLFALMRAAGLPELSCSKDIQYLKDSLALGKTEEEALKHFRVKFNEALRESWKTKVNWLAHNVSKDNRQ
Sequence of PI3Kδ (P27986 whole entry partner, looked up): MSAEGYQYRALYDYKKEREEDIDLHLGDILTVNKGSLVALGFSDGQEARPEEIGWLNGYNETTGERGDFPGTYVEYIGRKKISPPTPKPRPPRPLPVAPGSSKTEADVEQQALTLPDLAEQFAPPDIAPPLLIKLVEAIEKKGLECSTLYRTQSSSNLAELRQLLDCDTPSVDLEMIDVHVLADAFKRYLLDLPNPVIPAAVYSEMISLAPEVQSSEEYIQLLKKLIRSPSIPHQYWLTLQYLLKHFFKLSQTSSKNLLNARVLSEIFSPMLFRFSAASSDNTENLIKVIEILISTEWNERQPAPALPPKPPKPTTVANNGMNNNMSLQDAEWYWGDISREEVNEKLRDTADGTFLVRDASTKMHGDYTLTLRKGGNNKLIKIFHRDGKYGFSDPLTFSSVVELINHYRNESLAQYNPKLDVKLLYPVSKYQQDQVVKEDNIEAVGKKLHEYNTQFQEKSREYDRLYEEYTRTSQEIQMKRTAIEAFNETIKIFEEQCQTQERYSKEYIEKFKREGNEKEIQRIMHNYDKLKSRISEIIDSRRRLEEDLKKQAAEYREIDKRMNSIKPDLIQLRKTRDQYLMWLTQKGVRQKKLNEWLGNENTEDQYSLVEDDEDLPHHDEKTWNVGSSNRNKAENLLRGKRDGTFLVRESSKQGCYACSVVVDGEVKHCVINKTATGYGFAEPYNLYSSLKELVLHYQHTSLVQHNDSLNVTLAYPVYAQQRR
Sequence of PI3Kγ (P48736 whole entry): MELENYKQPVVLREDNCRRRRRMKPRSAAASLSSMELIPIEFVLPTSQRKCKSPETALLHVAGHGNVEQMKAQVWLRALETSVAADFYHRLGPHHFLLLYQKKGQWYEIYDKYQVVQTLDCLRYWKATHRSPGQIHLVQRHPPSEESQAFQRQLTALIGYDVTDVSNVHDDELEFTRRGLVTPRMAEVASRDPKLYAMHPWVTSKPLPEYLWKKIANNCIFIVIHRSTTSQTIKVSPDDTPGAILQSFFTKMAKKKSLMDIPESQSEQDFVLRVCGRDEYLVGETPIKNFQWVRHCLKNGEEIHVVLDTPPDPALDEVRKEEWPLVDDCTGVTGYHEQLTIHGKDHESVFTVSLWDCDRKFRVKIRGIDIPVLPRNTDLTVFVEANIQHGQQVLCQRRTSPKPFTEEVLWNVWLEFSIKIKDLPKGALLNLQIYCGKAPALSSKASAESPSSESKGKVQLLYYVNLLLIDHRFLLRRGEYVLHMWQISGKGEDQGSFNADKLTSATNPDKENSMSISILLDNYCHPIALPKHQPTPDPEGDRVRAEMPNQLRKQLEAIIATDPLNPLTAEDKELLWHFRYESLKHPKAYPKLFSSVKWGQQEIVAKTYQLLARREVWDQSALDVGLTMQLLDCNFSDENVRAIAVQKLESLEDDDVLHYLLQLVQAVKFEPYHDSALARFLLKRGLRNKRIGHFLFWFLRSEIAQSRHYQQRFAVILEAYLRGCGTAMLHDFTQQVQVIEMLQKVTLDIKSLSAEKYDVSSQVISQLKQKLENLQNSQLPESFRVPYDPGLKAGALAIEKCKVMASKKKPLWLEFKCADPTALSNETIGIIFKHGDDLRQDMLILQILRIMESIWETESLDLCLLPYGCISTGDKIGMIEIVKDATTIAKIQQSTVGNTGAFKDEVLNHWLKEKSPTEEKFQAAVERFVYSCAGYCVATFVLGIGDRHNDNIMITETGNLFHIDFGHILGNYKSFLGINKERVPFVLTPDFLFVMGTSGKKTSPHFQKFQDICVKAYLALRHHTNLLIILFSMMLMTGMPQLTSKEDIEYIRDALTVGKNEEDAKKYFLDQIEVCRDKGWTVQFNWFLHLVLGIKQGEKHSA

Row | IC50 (human Treg cells) | IC50 (PI3Kδ) | IC50 (PI3Kγ) | SMILES | inhibitory activity on human Treg cells relative to Idelalisib (human Treg cells; ratio of IC50 values)
1 | 31.7 nM | – | – | CC[C@H](Nc1ncnc2[nH]cnc12)c1nc2cccc(F)c2c(=O)n1-c1ccccc1 [Idelalisib, reference compound] | –
2 | 0.01 nM | 0.18 ± 0.01 nM | 0.29 ± 0.02 nM | COCCOc1cnc2ccc(-c3cnc(OC)c(NS(=O)(=O)c4sc(C)nc4C)c3)cn2c1=O [Compound I] | 3172 times

Source: patent publication US20240342176A1, “PHARMACEUTICAL COMBINATION AND APPLICATION THEREOF” (GUANGZHOU JOYO PHARMATECH CO., LTD, priority 2021, published 2024)
